This is an account of results in patent US11299435B2, “Urea-based composition and method for the manufacture thereof” (Yara International ASA, priority 2017, dated 2022).

What all share (assay type): physicochemical
Data set [1] can be described thus: Stability of nBTPT applied on moisturized urea granules during storage (HPLC nBTPT content). The settings on record: vs no stabilizer, closed plastic containers, 70° C., 15 days (FIG. 6). On the procedure:
For lab scale experiments for applying nBTPT on urea, nBTPT, as powder or as liquid formulations, was applied onto urea by adding 1.2 kg of urea to a lab scale drum. In a next step, the nBTPT material, with and/or without the presence of an alkaline stabilizer, was slowly added. A residence time of 10 minutes was applied and the rotating speed of the drum was consequently the same in each experiment. Larger scale experiments with amounts up to 40 kg of fertilizer material were performed in a concrete mixer.
(§1) 70° C. closed plastic container
(§2) HPLC analysis of nBTPT is done as described in the procedure CEN 15688-2007.
600 ppm nBTPT powder was mixed with and/or without the presence of an alkaline stabilizer and subsequently added on urea granules, which were moisturized from 0.20% H2O to 0.60% H2O. This moisturization was done to create a higher moisture level of the urea granules to simulate moisture take up during storage in market conditions.
Subsequently, the urea granules were stored for 15 days at 70° C. in closed plastic containers and the decomposition of nBTPT was followed.

Data set [2] is described as follows: Stability of nBTPT in solution with added alkaline compound (HPLC nBTPT content). As to conditions: closed plastic containers.
Source text: Lab scale experiments with nBTPT in solution: • An aqueous solution of nBTPT was made by dissolving 3 g nBTPT powder in 1 L water. In a next step an alkaline compound could be added. • A solution of 17.5% nBTPT in PG was made by dissolving step by step 17.5 g nBTPT powder in 82.5 g PG. In a next step, an alkaline compound could be added. • The commercial liquid nBTPT formulation Agrotain® Ultra was mixed with and/or without the presence of an alkaline stabilizer
(§3) Closed plastic container at room temperature (20° C.)
(§4) 50° C. closed plastic container
as §2
In a first experiment, a solution of 17.5% nBTPT in PG was made and in a next step an alkaline compound was added. Subsequently, the solutions were stored in closed plastic containers for 5 days at room temperature (20° C.) and subsequently 7 days at 50° C. and the decomposition of nBTPT was followed.
In a second experiment, an alkaline compound was added to Agrotain® Ultra. Subsequently, the nBTPT solutions were stored in closed plastic containers for 5 days at room temperature (20° C.) and the decomposition of nBTPT was followed.
In a third experiment, an aqueous solution of 3.0 g nBTPT in 1 L water was made and in a next step an alkaline compound was added. Subsequently, the aqueous solutions were stored in closed plastic containers for 5 days at room temperature (20° C.) and the decomposition of nBTPT was followed.

The nature of data set [3]: Stability of nBTPT melt-mixed in urea granules during storage (HPLC nBTPT content). How it is done:
For pilot scale experiments applying nBTPT in urea, nBTPT, as powder or as liquid formulations, was mixed in urea in the following way: nBTPT was added to urea melt, with and/or without the presence of an alkaline stabilizer and subsequently, this mixture was granulated in a fluidized bed granulator.
nBTPT in urea granules, with and/or without the presence of an alkaline stabilizer, were produced in the urea pilot plant in Sluiskil (Yara International ASA). This pilot plant has a batch capacity—after sieving—of about 50 kg of on-spec product. It basically consists of a stirred urea preparation vessel with an active volume of about 150 litres and a fluidized bed granulator of the UFT-type, equipped with a spraying nozzle of the spiral-type or HFT-type (EP 1701798 B1, 2005, Yara International ASA).
The samples were stored under several conditions, dependent on the type of samples:
as §3
Open to air at 20° C. with a relative humidity of 80%
For some samples, an accelerated stability test was done storing these samples at elevated temperatures:
40° C. closed plastic container
as §4, §1, §2
In the first experiment, 500 ppm nBTPT powder was added into urea melt, with and/or without the presence of an alkaline stabilizer, and in a next step this melt composition was converted into urea granules in a fluidized bed granulator. Subsequently, the granules were stored for 98 days at 40° C. in closed plastic containers and the decomposition of nBTPT was followed.
In a second experiment, the effect of other alkaline stabilizers such as CaO and CaCO3 was shown in comparison with NaOH. 500 ppm nBTPT powder was added into urea melt, containing an alkaline stabilizer, and in a next step, this melt composition was converted into urea granules in a fluidized bed granulator. Subsequently, the granules were stored for 109 days at 50° C. in closed plastic containers and the decomposition of nBTPT was followed.
On top of that, the granules were also stored for 1564 days (more than 4 years!) at room temperature (20° C.) in closed plastic containers and the decomposition of nBTPT was followed. […] With the addition of 1% CaO or CaCO3 a recovery of nBTPT higher than 40% was found after a long storage period of more than 4 years at room temperature.
In a third experiment, 500 ppm nBTPT powder was added into a urea melt, with and/or without the presence of 0.1% B as borax, and in a next step this melt composition was converted into urea granules in a fluidized bed granulator. Subsequently, the granules were stored for 57 days at 20° C./80% R.H. in open plastic containers and the decomposition of nBTPT was followed.
In a fourth experiment, 600 ppm nBTPT powder was added into a urea melt, with and/or without the presence of an alkaline stabilizer, and in a next step this melt composition was converted into urea granules in a fluidized bed granulator. Subsequently, the granules were stored for 15 days at 70° C. in closed plastic containers and the decomposition of nBTPT was followed.

In the case of `CCCCNP(N)(N)=S` [nBTPT, N-(n-butyl) thiophosphoric triamide], the “effect on the stability of nBTPT on urea granules during storage” value in data set [1] ([600 ppm nBTPT powder + 2600 ppm MgO] on urea moisturized from 0.20% to 0.60% H2O) and in data set [1] ([600 ppm nBTPT powder + 6000 ppm CaCO3] on urea moisturized from 0.20% to 0.60% H2O) was “positive effect” in each case. Besides, the “effect on the stability of nBTPT in solution” value in data set [2] (17.5% nBTPT in propylene glycol (PG) + 5% CaO vs none, 5 days at 20° C. then 7 days at 50° C. (FIG. 7)) is “negative effect”; in data set [2] (17.5% nBTPT in propylene glycol (PG) + 5% NaOH vs none, 5 days at 20° C. then 7 days at 50° C. (FIG. 7)), “negative effect”; in data set [2] (aqueous solution 3 g nBTPT/L water + 1% CaO vs none, 5 days at 20° C. (FIG. 9)), “negative effect”; in data set [2] (aqueous solution 3 g nBTPT/L water + 1% Na2CO3 vs none, 5 days at 20° C. (FIG. 9)) it was “negative effect”; in data set [2] (aqueous solution 3 g nBTPT/L water + 1% NaHCO3 vs none, 5 days at 20° C. (FIG. 9)) it was “negative effect”; in data set [2] (aqueous solution 3 g nBTPT/L water + 1% NaOH vs none, 5 days at 20° C. (FIG. 9)), “negative effect”. Besides, the “stability of nBTPT in urea” value in data set [3] (500 ppm nBTPT powder in urea + 1% CaCO3, compared with urea + 500 ppm NaOH, closed plastic containers, 50° C., 109 days (FIG. 2)) is listed as “even higher stability”; in data set [3] (500 ppm nBTPT powder in urea + 1% CaCO3, compared with urea + 500 ppm NaOH, closed plastic containers, room temperature (20° C.), 1564 days (FIG. 3)) it was “even higher stability”; in data set [3] (500 ppm nBTPT powder in urea + 1% CaO, compared with urea + 500 ppm NaOH, closed plastic containers, 50° C., 109 days (FIG. 2)), “even higher stability”; in data set [3] (500 ppm nBTPT powder in urea + 1% CaO, compared with urea + 500 ppm NaOH, closed plastic containers, room temperature (20° C.), 1564 days (FIG. 3)), “even higher stability”. The “effect on the stability of nBTPT in urea granules during storage” value in data set [3] (500 ppm nBTPT powder in urea + NaOH (200, 500, 1000 ppm) vs no NaOH, closed plastic containers, 40° C., 98 days, stability increases with NaOH dosage (FIG. 1)) is “positive effect”; in data set [3] (600 ppm nBTPT powder in urea + 1% CaCO3 vs no stabilizer, closed plastic containers, 70° C., 15 days (FIG. 5)) it was “big positive effect”; in data set [3] (600 ppm nBTPT powder in urea + 1% CaO vs no stabilizer, closed plastic containers, 70° C., 15 days (FIG. 5)), “big positive effect”; in data set [3] (nBTPT powder in urea + 0.1% B as borax vs no borax, open plastic containers, 20° C./80% R.H., 57 days (FIG. 4)) it was “big positive effect”. Besides, the “stability of the urease inhibitor in the composition according to the invention” value in data set [3] (bagged conditions without the presence of a head space (exclusion of moisture and atmospheric gasses)) was “further increased”.
